Measurements as given in paper PMC9278656 (Journal of medicinal chemistry, 2021).

Columns and labels:
[1] = read-out: KZn; order of magnitude, stated in Conclusions
Caco-2 permeability = type: in vitro ADME; conditions: human
Ionophore activity = conditions: larger number indicates weaker ionophore activity

In the case of `C/C(=N\NC(=S)N1CCC1)c1ccccn1` [ZMC1, (E)-N′-(1-(Pyridin-2-yl)ethylidene)azetidine-1-carbothiohydrazide, reference compound], the Kd [1] is reported as 10 nM, the Papp at 90 min, 5 μM (Caco-2 permeability) is reported as 15.6 ± 1.3 ×10⁻⁶ cm/s and the “Ionophore Ji drug/Ji DMSO” value (Ionophore activity) is reported as 12.4 -log[mol/m^2s].
